According to patent US7238213B2, “Cell-based assays employing voltage and calcium dyes” (priority 2001, dated 2007):

Assays:
[1] = biological target: DRD2 receptor (Homo sapiens, UniProt P14416)
[2] = biological target: Gi-coupled D2 dopamine receptor (Homo sapiens, UniProt P14416); settings: 300 nM, FIG. 29
Gi-coupled D2 dopamine receptor, sequence (P14416 whole entry): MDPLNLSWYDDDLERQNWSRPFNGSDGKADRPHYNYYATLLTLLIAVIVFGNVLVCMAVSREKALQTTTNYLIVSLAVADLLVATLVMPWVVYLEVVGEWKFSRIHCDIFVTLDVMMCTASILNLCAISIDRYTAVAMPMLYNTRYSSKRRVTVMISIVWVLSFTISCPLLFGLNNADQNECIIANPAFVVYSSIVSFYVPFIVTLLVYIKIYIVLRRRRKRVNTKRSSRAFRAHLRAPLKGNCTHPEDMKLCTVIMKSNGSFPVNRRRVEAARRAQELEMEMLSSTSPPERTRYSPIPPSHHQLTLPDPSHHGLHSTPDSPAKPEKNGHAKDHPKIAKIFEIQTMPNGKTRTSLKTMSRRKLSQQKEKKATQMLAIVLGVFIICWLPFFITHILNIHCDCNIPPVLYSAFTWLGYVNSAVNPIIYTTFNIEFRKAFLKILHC

DRD2 receptor, sequence (P14416 whole entry): as above

time to maximal response ([1]; 1 μM dopamine, 96-well, FLEXstation): about 400 seconds | time for forskolin-induced fluorescence signal to nearly return to the pre-forskolin level ([1]; no PDE inhibitor, FIG. 28A): ≤ 7 min | calcium response [2]: does not affect calcium levels
Structure (SMILES): NCCc1ccc(O)c(O)c1 [dopamine]
